Reference: paper PMC5571211 (Scientific Reports, 2017)

Assays:
[1] = system: 5-LOX product formation (FLAP) in human neutrophils; assay: 5-LOX product formation in intact human neutrophils stimulated with Ca2+-ionophore A23187; format: cell-based; conditions: 5 h, read-out: IC50, formation of LTB4 and its isomers and of 5-H(p)ETE (5-LOX product formation); intact human neutrophils (PMNL), Ca2+-ionophore A23187, no AA supplementation
Experimental: After elution with methanol, samples were analyzed by RP-HPLC using a C-18 Radial-PAK column (Waters, Eschborn, Germany).

[2] = system: HEK293 cells expressing 5-LOX and FLAP; assay: 5-LOX product formation in HEK293 cells expressing 5-LOX and FLAP; format: cell-based; conditions: HEK293 expressing 5-LOX and FLAP, A23187 plus 3 µM AA
Experimental: HEK293 cells were cultured in monolayers (37 °C, 5% CO2) in DMEM containing FCS (10%), penicillin (100 U/mL) and streptomycin (100 µg/mL). HEK293 cell lines stably expressing 5-LOX with or without FLAP were selected using geneticin (400 µg/mL) with or without hygromycin (200 µg/mL), respectively, as previously described. Transfection of HEK293 was performed using pcDNA3.1 plasmids and lipofectamine according to the manufacturer’s instructions (Invitrogen, Darmstadt, Germany).
For analysis of 5-LOX product formation in HEK293 cells stably expressing 5-LOX with or without FLAP, cells were harvested by trypsinization, pelleted (1,200 rpm, 5 min, 4 °C) and resuspended in PGC buffer to a final concentration of 1 × 10^6 cells/mL. Aliquots were pre-incubated with test compounds or 0.1% DMSO for 15 min, respectively, and stimulated with 2.5 µM A23187 and 3 µM AA.

15-LOX = 15-LOX activity (15-HETE) in intact neutrophils; format: cell-based, human; conditions: A23187 and 20 µM AA, concentration-dependently elevated
Experimental: In order to examine 5-LOX product formation in intact human neutrophils and monocytes, freshly isolated cells were resuspended in PBS buffer containing 0.1% glucose and 1 mM CaCl2 (PGC buffer) to a final cell density of 5 × 10^6 or 2 × 10^6, respectively. […] 5-LOX product formation was stopped by addition of one volume of ice-cold methanol, samples were subjected to solid phase extraction after addition of 200 ng PGB1 as internal standard and 5-LOX products were analyzed by RP-HPLC as described above.

monocytes = assay: Acute cytotoxicity, MTT assay in monocytes; format: cell-based, human; conditions: 24 or 48 hrs; diflapolin 10 µM, staurosporine 3 µM
Experimental: Acute cytotoxicity of the compounds was determined using freshly isolated monocytes. Cells (0.2 × 10^6) per sample were seeded in 100 µL buffer on 96-well plates and treated with the test compounds and appropriate controls for 24 or 48 hrs (37 °C, 5% CO2). After addition of MTT (5 mg/mL) for 2 h (37 °C, 5% CO2), cells were lysed by SDS treatment (10%, pH 4.5) for 16–20 hrs and formazan formation was determined by measurement of absorbance at 570 nm.

[3] = system: AA release (cPLA2) in neutrophils; assay: [3H]-labeled arachidonic acid release in neutrophils; format: cell-based, human; conditions: [3H]AA-pre-labelled neutrophils; diflapolin 1 µM, RSC-3388 10 µM
Experimental: Freshly isolated human neutrophils were resuspended in RPMI 1640 medium to a final cell density of 10^7 cells/mL and incubated with 0.5 µCi/mL of [^3H]-labeled arachidonic acid ([^3H]-AA), corresponding to a concentration of 5 nM of the fatty acid, for 2 hrs (37 °C, 5% CO2). Cells were washed twice to remove unincorporated [^3H]-AA and resuspended in PBS containing glucose (0.1%), fatty acid-free BSA (2 mg/mL) and CaCl2 (1 mM). […] The reaction was stopped on ice and cells were centrifuged at 1,200 rpm (10 min, 4 °C). The collected supernatants were combined with 2 mL of liquid scintillation counting solution (Rotiszint eco plus, Carl Roth, Karlsruhe, Germany) and assayed for radioactivity by scintillation counting (Micro Beta Trilux, Perkin Elmer, Waltham, MA).

LTC4S = target: T1, LTC4S (Homo sapiens, UniProt Q16873); assay: LTC4S activity in microsomes of LTC4S-expressing HEK293 cells; format: biochemical; conditions: cell-free, up to 10 µM
T1 construct: expressed in transfected cells; host or cells: HEK293 stably expressing LTC4S (geneticin selection), microsomal fraction
T1 sequence (Q16873 1-150): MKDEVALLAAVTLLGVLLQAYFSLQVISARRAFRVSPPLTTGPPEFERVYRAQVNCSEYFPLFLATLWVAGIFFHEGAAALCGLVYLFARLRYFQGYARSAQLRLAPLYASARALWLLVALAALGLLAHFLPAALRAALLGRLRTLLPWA
Experimental: LTC4S activity was assayed by using microsomes of HEK293 cells stably expressing LTC4S, as previously published. In brief, HEK293 expressing LTC4S were cultivated as described above and selected using geneticin (400 µg/mL). Isolation of microsomes was performed as described for mPGES-1 above and microsomes were diluted in potassium phosphate buffer (0.1 M, pH 7.4) with glutathione (5 mM) to a final concentration of 2.5 µg protein per mL. […] To determine enzyme activity, acidified PBS and d5-LTC4-methyl ester (5 ng) as internal standard were added prior solid phase extraction and LTC4-methyl ester formation was analyzed by UPLC-MS/MS as described.

recombinant human COX-2 = target: T2, recombinant human COX-2 (Homo sapiens, UniProt P35354); assay: COX-2 activity, cell-free (12-HHT formation); format: biochemical; conditions: 10 µM
T2 construct: purchased Cayman Chemical (Biomol, Hamburg, Germany)
T2 sequence (P35354 18-604): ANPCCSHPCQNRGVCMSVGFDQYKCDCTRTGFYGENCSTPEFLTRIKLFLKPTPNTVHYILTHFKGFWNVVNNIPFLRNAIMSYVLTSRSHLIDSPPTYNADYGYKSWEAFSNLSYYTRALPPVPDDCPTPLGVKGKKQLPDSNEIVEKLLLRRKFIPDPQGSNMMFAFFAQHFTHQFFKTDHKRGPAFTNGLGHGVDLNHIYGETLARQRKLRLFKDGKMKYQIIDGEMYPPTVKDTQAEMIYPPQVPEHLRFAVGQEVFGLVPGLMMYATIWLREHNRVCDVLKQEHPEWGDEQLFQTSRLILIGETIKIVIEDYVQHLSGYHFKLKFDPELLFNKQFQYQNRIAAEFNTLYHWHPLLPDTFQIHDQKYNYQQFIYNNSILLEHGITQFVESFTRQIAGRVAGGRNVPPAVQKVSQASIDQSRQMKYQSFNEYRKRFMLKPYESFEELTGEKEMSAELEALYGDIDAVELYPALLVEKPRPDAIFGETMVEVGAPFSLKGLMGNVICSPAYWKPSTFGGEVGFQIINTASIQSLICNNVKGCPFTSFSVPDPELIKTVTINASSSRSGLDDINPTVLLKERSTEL
Experimental: COX activity was assayed by using purified ovine COX-1 and recombinant human COX-2, respectively. Enzymes were diluted in Tris buffer (100 mM, pH 8) supplemented with glutathione (5 mM), EDTA (100 µM) and hemoglobin (5 µM) to a final concentration of 50 U/mL (COX-1) or 20 U/mL (COX-2) and pre-incubated with test compounds or vehicle (0.1% DMSO) for 5 min at RT. After 30 sec at 37 °C, reactions were started with 5 µM AA (COX-1) or 2 µM AA (COX-2) and stopped after 5 min at 37 °C by addition of one volume of ice-cold methanol. Solid phase extraction was performed as described above after addition of 200 ng of internal PGB1 standard and COX product formation was determined by analysis of 12-HHT formation as reported before.

With CC(C)c1ccc2c(c1)c(SC(C)(C)C)c(CC(C)(C)C(=O)O)n2Cc1ccc(Cl)cc1 [MK886, 3-[1-(4-chlorobenzyl)-3-t-butyl-thio-5-isopropylindol-2-yl]-2,2 - dimethylpropanoic acid] the IC50 [1] was 10 to 14 nM.
For Cc1cc(OCc2nc3ccccc3s2)ccc1NC(=O)Nc1ccc(Cl)c(Cl)c1 [diflapolin, N-[4-(benzothiazol-2-ylmethoxy)-2-methylphenyl]-N′-(3,4-dichlorophenyl)urea], the “inhibition of 5-LOX product formation” value [2] was “strongly inhibited”, the 15-HETE formation (15-LOX) was “up to 200 % of the vehicle control” and the “viability of monocytes, MTT assay” value (monocytes) was “did not affect the viability”. For the same molecule, the “release of AA upon A23187-stimulation” value [3] was “did not inhibit”, the “inhibition of LTC4S activity” value (LTC4S) was “failed to inhibit” and the “inhibition of COX-2 activity” value (recombinant human COX-2) was “did not significantly inhibit”.
